This experiment has as its target Protein farnesyltransferase subunit beta/geranylgeranyltransferase type-1 subunit alpha (Homo sapiens, UniProt P49354+P49356). Put plainly: FTase Scintillation Proximity Assay. As to conditions: pH 7.5; 22 °C. The protocol:
Compounds were tested as inhibitors of FTase in vitro using purified human enzyme to catalyze the reaction between [3H] FPP and a biotinylated peptide substrate. Reaction was terminated by addition of streptavidin scintillation proximity assay beads (Amersham), and the mixtures were subsequently analyzed by scintillation counting.
A general note: SPA uses beads or plates that emit light when radiolabelled molecules are held near them.

Structures are written as SMILES. Several values for one entry are separate records, joined by “and”; a condition that tells them apart may be missing. Identical values can stand only once.

One may read the IC50 as the concentration that gives 50% inhibition. Higher therefore signals weaker potency in that assay. `Cn1cncc1[C@@](N)(c1ccc(Cl)cc1)c1ccc2c(c1)c(-c1cccc(Cl)c1)cc(=O)n2C` (racemic) [Racemic mixture]: the IC50 was 7.9 nM and 0.86 nM.
